Reference: PubChem BioAssay AID1963863 (Molecular Pharmacology Branch, DTP, NCI, 2024)

System: 931267-113-T-J1-PDC KRAS spheroid with HUVEC/MSC, viability
Test: Anticancer human tumor 931267-113-T-J1-PDC patient-derived colon adenocarcinoma cell line growth inhibition [KRAS2]
Details: for IC50: curve of first compound; for viability, T/C: stronger effect = lower value
Outline: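 Combination screen of spheroid viability in tumor-cell co-cultures with endothelial (HUVEC) and mesenchymal stem cell stroma. Each agent was tested in half-log dilutions, topping at clinical Cmax or at 10 microM without a known Cmax.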

[1] = second compound 0.1 µM, first compound 0.01 µM
[2] = second compound 0.1 µM, first compound 0.0316 µM
[3] = second compound 0.1 µM, first compound 0.1 µM
[4] = second compound 0.1 µM, first compound 0.316 µM
[5] = second compound 0.1 µM, first compound 1 µM
[6] = second compound 0.1 µM, first compound 3.16 µM
[7] = second compound 0.316 µM, first compound 0.01 µM
[8] = second compound 0.316 µM, first compound 0.0316 µM
[9] = second compound 0.316 µM, first compound 0.1 µM
[10] = second compound 0.316 µM, first compound 0.316 µM
[11] = second compound 0.316 µM, first compound 1 µM
[12] = second compound 0.316 µM, first compound 3.16 µM
[13] = second compound 1 µM, first compound 0.01 µM
[14] = second compound 1 µM, first compound 0.0316 µM
[15] = second compound 1 µM, first compound 0.1 µM
[16] = second compound 1 µM, first compound 0.316 µM
[17] = second compound 1 µM, first compound 1 µM
[18] = second compound 1 µM, first compound 3.16 µM
[19] = second compound 3.16 µM, first compound 0.01 µM
[20] = second compound 3.16 µM, first compound 0.0316 µM
[21] = second compound 3.16 µM, first compound 0.1 µM
[22] = second compound 3.16 µM, first compound 0.316 µM
[23] = second compound 3.16 µM, first compound 1 µM
[24] = second compound 3.16 µM, first compound 3.16 µM
[25] = second compound 10 µM, first compound 0.01 µM
[26] = second compound 10 µM, first compound 0.0316 µM
[27] = second compound 10 µM, first compound 0.1 µM
[28] = second compound 10 µM, first compound 0.316 µM
[29] = second compound 10 µM, first compound 1 µM
[30] = second compound 10 µM, first compound 3.16 µM
[31] = second compound 0.1 µM, first compound 10 µM
[32] = second compound 0.316 µM, first compound 10 µM
[33] = second compound 1 µM, first compound 10 µM
[34] = second compound 3.16 µM, first compound 10 µM
[35] = second compound 10 µM, first compound 10 µM
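Further: compound exposure lasted 7 days before the readout.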
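Wherever viability, T/C is given: 100% = DMSO vehicle control viability.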

Structure (SMILES) | IC50 (second compound 0.1 µM) [nM] | IC50 (second compound 0.316 µM) [nM] | IC50 (second compound 1 µM) [nM] | IC50 (second compound 3.16 µM) [nM] | IC50 (second compound 10 µM) [nM] | viability, T/C [2] [%] | viability, T/C [3] [%] | viability, T/C [4] [%] | viability, T/C [5] [%] | viability, T/C [6] [%] | viability, T/C [8] [%] | viability, T/C [9] [%] | viability, T/C [10] [%] | viability, T/C [11] [%] | viability, T/C [12] [%] | viability, T/C [14] [%] | viability, T/C [15] [%] | viability, T/C [16] [%] | viability, T/C [17] [%] | viability, T/C [18] [%] | further results
CC1COCCN1c1cc(-c2ccnn2C)c2ccnc(-c3ccn[nH]3)c2n1 (stereo not given) + CNCc1ccccc1-c1csc(C(C)Nc2nc(C)nc3cc(OC)c(OC)cc23)c1 | 49.6 | 46.6 | 27.8 | < 10 | < 10 | 64.9 | 27.4 | 11.4 | 17.1 | 18 | 64.9 | 20.6 | 14.7 | 16.9 | 15.3 | 48.8 | 19.8 | 7.5 | 10.8 | 6.12 | viability, T/C [1]: 87.4%; viability, T/C [7]: 80.2%; viability, T/C [13]: 58.3%; viability, T/C [19]: 0.07%; viability, T/C [20]: 0.07%; viability, T/C [21]: 0.05%; viability, T/C [22]: 0.04%; viability, T/C [23]: 0.05%; viability, T/C [24]: 0.14%; viability, T/C [25]: 0.16%; viability, T/C [26]: 0.09%; viability, T/C [27]: 0.1%; viability, T/C [28]: 0.1%; viability, T/C [29]: 0.11%; viability, T/C [30]: 1.06%
CC1OCC2(CCN(c3cnc(Sc4ccnc(N)c4Cl)c(N)n3)CC2)C1N (stereo not given) + CNCc1ccccc1-c1csc(C(C)Nc2nc(C)nc3cc(OC)c(OC)cc23)c1 | > 10000 | > 10000 | 31.6 | < 31.6 | < 31.6 | 96.8 | 70.7 | 66.5 | 68.3 | 61.1 | 88.6 | 89.3 | 72 | 63.2 | 78.8 | 51.3 | 44.8 | 54.2 | 33.1 | 33.2 | viability, T/C [31]: 59.8%; viability, T/C [32]: 81.8%; viability, T/C [33]: 27.5%; viability, T/C [20]: 0.09%; viability, T/C [21]: 0.09%; viability, T/C [22]: 0.08%; viability, T/C [23]: 0.08%; viability, T/C [24]: 0.08%; viability, T/C [34]: 0.17%; viability, T/C [26]: 0.12%; viability, T/C [27]: 0.19%; viability, T/C [28]: 0.13%; viability, T/C [29]: 0.13%; viability, T/C [30]: 0.12%; viability, T/C [35]: 0.17%
CCNC(=O)CC1N=C(c2ccc(Cl)cc2)c2cc(OC)ccc2-n2c(C)nnc21 (stereo not given) + CNCc1ccccc1-c1csc(C(C)Nc2nc(C)nc3cc(OC)c(OC)cc23)c1 | 775 | 240 | 170 | < 31.6 | < 31.6 | 96.5 | 109 | 63.5 | 54.9 | 46.4 | 75.7 | 75.2 | 42 | 45.7 | 30.8 | 64.4 | 53 | 43.6 | 36.7 | 31 | viability, T/C [31]: 37.3%; viability, T/C [32]: 30.9%; viability, T/C [33]: 18.1%; viability, T/C [20]: 0.1%; viability, T/C [21]: 0.1%; viability, T/C [22]: 0.08%; viability, T/C [23]: 0.08%; viability, T/C [24]: 0.07%; viability, T/C [34]: 0.16%; viability, T/C [26]: 0.15%; viability, T/C [27]: 0.46%; viability, T/C [28]: 0.12%; viability, T/C [29]: 0.12%; viability, T/C [30]: 0.12%; viability, T/C [35]: 0.2%
Cn1nccc1Nc1nccc(-c2cc3c(s2)C(C)(C)N(CCN2CCOCC2)C3=O)n1 + CNCc1ccccc1-c1csc(C(C)Nc2nc(C)nc3cc(OC)c(OC)cc23)c1 | 323 | 433 | 88.4 | < 31.6 | < 31.6 | 73.6 | 71.3 | 44.5 | 34.1 | 6.18 | 76.4 | 75.4 | 60.6 | 21.4 | 4.19 | 56.5 | 51 | 26.6 | 11.2 | 0.39 | viability, T/C [31]: 2.96%; viability, T/C [32]: 1.79%; viability, T/C [33]: 0.15%; viability, T/C [20]: 0.1%; viability, T/C [21]: 0.09%; viability, T/C [22]: 0.08%; viability, T/C [23]: 0.11%; viability, T/C [24]: 0.04%; viability, T/C [34]: 0.11%; viability, T/C [26]: 0.11%; viability, T/C [27]: 0.13%; viability, T/C [28]: 0.13%; viability, T/C [29]: 0.11%; viability, T/C [30]: 0.11%; viability, T/C [35]: 0.42%
CC(=O)OC12COC1CC(O)C1(C)C(=O)C(O)C3=C(C)C(OC(=O)C(O)C(NC(=O)OC(C)(C)C)c4ccccc4)CC(O)(C(OC(=O)c4ccccc4)C21)C3(C)C (stereo not given) + COc1cc2nc(C)nc(NC(C)c3cc(N)cc(C(F)(F)F)c3)c2cc1OC1CCOC1 | > 3160 | > 3160 | > 3160 | > 3160 | > 3160 | 77.7 | 81.3 | 83.7 | 92.4 | 106 | 76.3 | 92 | 76.7 | 82.6 | 72.1 | 105 | 88.2 | 88 | 96.7 | 56.9 | viability, T/C [1]: 84.9%; viability, T/C [7]: 88%; viability, T/C [13]: 95%; viability, T/C [19]: 90%; viability, T/C [20]: 107%; viability, T/C [21]: 76.5%; viability, T/C [22]: 83.9%; viability, T/C [23]: 83.8%; viability, T/C [24]: 84.9%; viability, T/C [25]: 98%; viability, T/C [26]: 110%; viability, T/C [27]: 96.2%; viability, T/C [28]: 84.3%; viability, T/C [29]: 72.5%; viability, T/C [30]: 92%
